Assay results from patent US5420140A, “Difluorinated quinolones useful for treating bacterial infections” (Bouchara S.A., priority 1991, dated 1995).
Converted amounts (≈) assume the structure as drawn. Where two headings read alike, the source gives them in different places.

Key:
[1] = tested on: Staphylococcus aureus ATCC 25923; test: Determination of MIC and MBC by microdilution method, Staphylococcus aureus ATCC 25923; type: cell-based; conditions: Staphylococcus aureus; for MIC: ATCC25923, 18 h, read-out: Minimal inhibitory concentration (MIC)
Experimental: (§1) The compound have been tested towards 7 reference strains:
Staphylococcus aureus ATCC 25923
(§2) The determination of minimal inhibitory concentrations (MIC) has been performed using a microdution method (microplates and inoculator Dynatech) in liquid medium (MUELLER-HINTON broth) under a volume of 100 μl and for a range of concentrations from 128 to 0.06 mg/l, prepared from a mother liquor of antibiotics titrating 512 mg/l. The preparation of these mother liquors has been performed and vary depending on the molecules as a function of the solubility criterions. Inoculation has been done by adding in each will, 10 μl of a dilution in saline of 18 hours old broth in a brain-heart broth, such as each well contains about 10^6 bacterias/ml.
(§3) The Minimal Inhibitory Concentrations are read as the first concentration of antibiotic which will not give a growth macroscopically detectable after 18 hours incubating at 37°.

[2] = tested on: Streptococcus faecalis ATCC 8043; test: Determination of MIC and MBC by microdilution method, Streptococcus faecalis ATCC 8043; type: cell-based; conditions: Enterococcus faecalis; for MIC: read-out: Minimal inhibitory concentration (MIC)
Experimental: as §1
Streptococcus faecalis ATCC 8043
(§4) The preparation of these mother liquors has been performed and vary depending on the molecules as a function of the solubility criterions. Inoculation has been done by adding in each will, 10 μl of a dilution in saline of 18 hours old broth in a brain-heart broth, such as each well contains about 10^6 bacterias/ml. […]

[3] = tested on: Pseudomonas aeruginosa ATCC 22853; test: Determination of MIC and MBC by microdilution method, Pseudomonas aeruginosa ATCC 22853; type: cell-based; conditions: Pseudomonas aeruginosa; for MIC: ATCC22853, 18 h, read-out: Minimal inhibitory concentration (MIC)
Experimental: as §1
Pseudomonas aeruginosa ATCC 22853
as §4

[4] = tested on: Acinetobacter Baumanii ATCC 17904; test: Determination of MIC and MBC by microdilution method, Acinetobacter; type: cell-based; conditions: Acinetobacter baumannii; for MIC: ATCC17904, 18 h, read-out: Minimal inhibitory concentration (MIC)
Experimental: The compound have been tested towards 7 reference strains: […]
as §2, §3

S. aureus CB-951 = test: Determination of MIC and MBC by microdilution method, S. aureus CB-951; type: cell-based, Staphylococcus aureus; conditions: Staphylococcus aureus; for MIC: CB951, 18 h, read-out: Minimal inhibitory concentration (MIC)
Experimental: as §1
Staphylococcus aureus CB 951
as §2, §3

[5] = tested on: Escherichia coli ATCC 25922; test: Determination of MIC and MBC by microdilution method, Escherichia coli ATCC 25922; type: cell-based; conditions: Escherichia coli, ATCC25922, E. coli ATCC 25922; for MIC: Mueller-Hinton broth, 18 hours at 37°, read-out: Minimal inhibitory concentration (MIC); for MBC: read-out: Minimal bactericidal concentration (MBC)
Experimental: as §1
Escherichia coli ATCC 25922
as §2, §3

[6] = S. aureus ATCC 25923, Mueller-Hinton broth, 18 hours at 37°
[7] = ATCC25923, S. aureus ATCC 25923, read-out: Minimal bactericidal concentration (MBC)
[8] = ATCC8043, S. faecalis ATCC 8043, read-out: Minimal bactericidal concentration (MBC)
[9] = ATCC8043, S. faecalis ATCC 8043, Mueller-Hinton broth, 18 hours at 37°
[10] = P. aeruginosa ATCC 22853, Mueller-Hinton broth, 18 hours at 37°
[11] = ATCC22853, P. aeruginosa ATCC 22853, read-out: Minimal bactericidal concentration (MBC)
[12] = Acinetobacter Baumanii ATCC 17904, Mueller-Hinton broth, 18 hours at 37°
[13] = ATCC17904, Acinetobacter Baumanii ATCC 17904, read-out: Minimal bactericidal concentration (MBC)
[14] = S. aureus CB-951, methicillino, erythromycinolincomycino, pefloxacino resistant, Mueller-Hinton broth, 18 hours at 37°
[15] = CB951, S. aureus CB-951, methicillino, erythromycinolincomycino, pefloxacino resistant, read-out: Minimal bactericidal concentration (MBC)

| MIC [1, 6] [µg/mL] | MIC [2, 9] [µg/mL] | MIC [5] [µg/mL] | MIC [3, 10] [µg/mL] | MIC [4, 12] [µg/mL] | MIC (S. aureus CB-951; [14]) [µg/mL] | SMILES | MBC [1, 7] [µg/mL] | MBC [2, 8] [µg/mL] | MBC [5] [µg/mL] | MBC [3, 11] [µg/mL] | MBC [4, 13] [µg/mL] | MBC (S. aureus CB-951; [15]) [µg/mL] | other results |
| --- | --- | --- | --- | --- | --- | --- | --- | --- | --- | --- | --- | --- | --- |
| – | – | – | – | – | – | O=C(O)c1cn(C2CC2)c2cc(N3CCNCC3)c(F)cc2c1=O [Ciprofloxacine, reference compound] | – | – | – | – | – | – | MIC [1]: 0.25 µg/mL (≈ 0.754 µM); MBC ([1]; ATCC25923, read-out: Minimal bactericidal concentration (MBC)): 0.25 µg/mL (≈ 0.754 µM); MIC ([2]; ATCC8043, 18 h): 0.25 µg/mL (≈ 0.754 µM); MBC ([2]; ATCC8043, read-out: Minimal bactericidal concentration (MBC)): 0.25 µg/mL (≈ 0.754 µM); MIC [3]: 0.12 µg/mL (≈ 0.362 µM); MBC ([3]; ATCC22853, read-out: Minimal bactericidal concentration (MBC)): 0.25 µg/mL (≈ 0.754 µM); MIC [4]: 0.06 µg/mL (≈ 0.181 µM); MBC ([4]; ATCC17904, read-out: Minimal bactericidal concentration (MBC)): 0.06 µg/mL (≈ 0.181 µM); MIC (S. aureus CB-951): 4 µg/mL (≈ 12.1 µM); MBC (S. aureus CB-951; CB951, read-out: Minimal bactericidal concentration (MBC)): 4 µg/mL (≈ 12.1 µM) |
| 0.5 (≈ 1.14 µM) | 4 (≈ 9.14 µM) | 8 (≈ 18.3 µM) | > 32 | 2 (≈ 4.57 µM) | 4 (≈ 9.14 µM) | CCn1cc(C(=O)O)c(=O)c2cc(F)c(N3CCC(CNC(=O)CCO)CC3)c(F)c21 [Compound 2, 7-(4-(3-hydroxypropionylaminomethyl)piperidinyl-1) 6,8-difluoro 1-ethyl 4-oxo 1,4-dihydroquinoleinyl-3 carboxylic acid] | 1 (≈ 2.29 µM) | 4 (≈ 9.14 µM) | 8 (≈ 18.3 µM) | > 32 | 4 (≈ 9.14 µM) | 4 (≈ 9.14 µM) | – |
| 0.5 (≈ 1.3 µM) | 2 (≈ 5.22 µM) | 2 (≈ 5.22 µM) | 8 (≈ 20.9 µM) | 2 (≈ 5.22 µM) | 4 (≈ 10.4 µM) | NCC1CCN(c2c(F)cc3c(=O)c(C(=O)O)cn(CCF)c3c2F)CC1 [Compound 3, 7-(4-aminomethylpiperidinyl-1) 6,8-difluoro 1-fluoroethyl 4-oxo 1,4-dihydroquinoleinyl-3 carboxylic acid] | 1 (≈ 2.61 µM) | 4 (≈ 10.4 µM) | 2 (≈ 5.22 µM) | 16 (≈ 41.7 µM) | 4 (≈ 10.4 µM) | 8 (≈ 20.9 µM) | – |
| 12 (≈ 26.9 µM) | > 12 | > 12 | > 12 | 12 (≈ 26.9 µM) | > 12 | NCC1CCN(c2c(F)cc3c(=O)c(C(=O)O)cn(Cc4ccc(F)cc4)c3c2F)CC1 [Compound 4, 7-(4-aminomethylpiperidinyl-1) 6,8-difluoro 1-(4-fluorobenzyl) 4-oxo 1,4-dihydroquinoleinyl-3 carboxylic acid] | 12 (≈ 26.9 µM) | 12 (≈ 26.9 µM) | > 12 | > 12 | > 12 | 12 (≈ 26.9 µM) | – |
| 2 (≈ 4.33 µM) | 16 (≈ 34.6 µM) | 4 (≈ 8.66 µM) | > 16 | 4 (≈ 8.66 µM) | > 16 | NCC1CCN(c2c(F)cc3c(=O)c(C(=O)O)cn(Cc4ccccc4Cl)c3c2F)CC1 [Compound 5, 7-(4-aminomethylpiperidinyl-1) 6,8-difluoro 1-(2-chlorobenzyl) 4-oxo 1,4-dihydroquinoleinyl-3 carboxylic acid] | 4 (≈ 8.66 µM) | > 16 | 8 (≈ 17.3 µM) | > 16 | 8 (≈ 17.3 µM) | > 16 | – |
| 0.5 (≈ 1.19 µM) | 8 (≈ 19 µM) | 8 (≈ 19 µM) | > 16 | 0.25 (≈ 0.593 µM) | 1 (≈ 2.37 µM) | CCC(=O)NCC1CCN(c2c(F)cc3c(=O)c(C(=O)O)cn(CC)c3c2F)CC1 [Compound 7, 7-[(4-propionylaminomethyl)piperidinyl-1] 6,8-difluoro 1-ethyl 4-oxo 1,4-dihydroquinoleinyl-3 carboxylic acid] | 0.51 (≈ 1.21 µM) | 8 (≈ 19 µM) | 8 (≈ 19 µM) | > 16 | 0.5 (≈ 1.19 µM) | 1 (≈ 2.37 µM) | – |
| 0.03 (≈ 0.0567 µM) | 4 (≈ 7.55 µM) | 16 (≈ 30.2 µM) | > 16 | – | 1 (≈ 1.89 µM) | CCn1cc(C(=O)O)c(=O)c2cc(F)c(N3CCC(CNC(=O)Nc4ccc([N+](=O)[O-])cc4)CC3)c(F)c21 [Compound 17, 7-[4-(4-nitrophenyl)aminocarbonylaminomethylpiperidinyl-1] 6,8-difluoro 1-ethyl] | 0.03 (≈ 0.0567 µM) | 8 (≈ 15.1 µM) | > 16 | > 16 | – | 1 (≈ 1.89 µM) | – |
| – | 2 (≈ 3.98 µM) | 8 (≈ 15.9 µM) | > 32 | – | 0.03 (≈ 0.0597 µM) | CCn1cc(C(=O)O)c(=O)c2cc(F)c(N3CCC(CNC(=O)Nc4ccccc4F)CC3)c(F)c21 [Compound 19, 7-[4-(2-fluorophenyl)aminocarbonylaminomethylpiperidinyl-1] 6,8-difluoro 1-ethyl] | – | 2 (≈ 3.98 µM) | 8 (≈ 15.9 µM) | > 32 | – | 0.06 (≈ 0.119 µM) | – |
